Assays:
adults with MDD [1] = conditions: responders to first 14-day course of 50 mg who continued beyond Day 28; up to 1 year follow-up; cited from earlier work
adults with MDD [2] = experiment: Phase 3 CORAL study: treatment-emergent adverse events (safety set); type: in vivo, human; conditions: 50 mg once daily 14 days co-initiated with ADT
Method: This was a randomized, double-blind, parallel-group, placebo-controlled study in adults with MDD. The diagnosis of MDD was made according to Structured Clinical Interview for Diagnostic and Statistical Manual of Mental Disorders, Fifth Edition (DSM-5) Clinical Trial Version (SCID 5-CT) performed by a qualified healthcare professional.
Participants were randomized to receive blinded Compound (1) 50 mg or placebo for administration each evening from Days 1 through 14. In addition, all participants received 1 of 2 classes of ADTs: a selective serotonin reuptake inhibitor (SSRI; sertraline, escitalopram, citalopram) or a serotonin-norepinephrine reuptake inhibitor (SNRI; duloxetine or desvenlafaxine) in an open-label manner from Day 1 through the end of the study. The ADT was administered per labeled prescribing information. The investigator assigned 1 of the 5 ADTs based on clinical standard of care; the participant must not have had been previously treated with the assigned ADT within the current depressive episode and must not have had taken any ADT within 30 days prior to Day 1 (or taken fluoxetine within 60 days prior to Day 1). Randomization was stratified by ADT class (SSRI or SNRI). […]

patients with MDD or PPD = conditions: cited from earlier work
[3] = test system: patients with major depressive disorder (MDD); conditions: TEAEs: nausea/vomiting, diarrhoea, abdominal pain, dyspepsia, anorexia, dry mouth; cited from earlier work

SMILES	patients who received a total of 1 or 2 treatment courses (adults with MDD [1])	tolerability (in words) (adults with MDD [2])	onset of effect on depressive symptoms (patients with MDD or PPD; 50 mg vs placebo, patients with MDD or PPD)	minimally effective dose (patients with MDD or PPD; previous Compound (1) studies in MDD) [mg]	tolerability on the gastrointestinal tract among antidepressants (in words) [3]
C[C@@]1(O)CC[C@H]2[C@H](CC[C@@H]3[C@@H]2CC[C@]2(C)[C@@H](C(=O)Cn4cc(C#N)cn4)CC[C@@H]32)C1 [Compound (1), 1-(2-((3R,5R,8R,9R,10S,13S,14S,17S)-3-hydroxy-3,13-dimethylhexadecahydro-1H-cyclopenta[a]phenanthren-17-yl)-2-oxoethyl)-1H-pyrazole-4-carbonitrile]	approximately 80%	generally-well tolerated	Day 2 or 3	30	
CN(C)CCC[C@@]1(c2ccc(F)cc2)OCc2cc(C#N)ccc21 [escitalopram]					least tolerated
CN[C@H]1CC[C@@H](c2ccc(Cl)c(Cl)c2)c2ccccc21 [sertraline]					least tolerated

Source: US20250295674A1, “NEUROACTIVE STEROIDS FOR TREATMENT OF CNS-RELATED DISORDERS” (Sage Therapeutics, Inc., priority 2022, published 2025)
